Measured values reported in US7709497B2, “Pyrazolo[3,4-b]pyridine compound, and its use as a PDE4 inhibitor” (Glaxo Group Limited, priority 2004, dated 2010).

Test system: TNF-α (TNF-alpha) production in Human Whole Blood
Test: Inhibition of TNF-α production in Human Whole Blood
Assay type: cell-based
Conditions: LPS-stimulated, n=6, read-out: Inhibition of TNF-α production in Human Whole Blood pIC50 (converted)
Procedure: This is an optional supplementary test, e.g. for potentially orally-administrable PDE4 inhibitors. Also, as the assay measures the effect of PDE4 inhibitors after loss by protein binding, it might also be relevant to externally-topically-administrable PDE4 inhibitors as protein-binding-loss of compound is possible during transport through the skin.
Test compounds are prepared as a ca. 10 mM stock solution in DMSO and a dilution series prepared in DMSO with 8 successive 3-fold dilutions, either directly from the 10 mM stock solution or from a more dilute solution in DMSO. The compound is added to assay plates using a Biomek Fx liquid handling robot.
Heparinised blood drawn from normal volunteers is dispensed (ca. 100 μl=ca. 100 ul) into microtitre plate wells containing ca. 0.5 or ca. 1.0 μl (ul, microliters) of an appropriately diluted test compound solution. […] Plasma TNFα content is determined by electrochemiluminescence assay using the IGEN technology (see below) or by enzyme linked immunosorbant assay (ELISA) (see below).
Ca. […] 50 μl (ul) of streptavidin/biotinylated anti-TNF-α antibody mix, ca. 25 μl ruthenium tagged anti-TNF-α monoclonal and ca. 100 μl PBS containing 0.1% bovine serum albumin are added to each well and the plates are sealed and shaken for ca. 2 hours before being read on an IGEN instrument. […]

- IC50: 7.41 nM
SMILES: CCn1ncc2c(NC3CCN(C(N)=O)CC3)c(C(=O)NCc3ccc(C)c(C)c3)cnc21 [compound of formula (I), 4-{[1-(aminocarbonyl)-4-piperidinyl]amino}-N-[(3,4-dimethylphenyl)methyl]-1-ethyl-1H-pyrazolo[3,4-b]pyridine-5-carboxamide]
